These are literature values, as cited in US20260144771A1, “Use of Triheptanoin Oil for Primary-Specific Pyruvate Dehydrogenase Complex (PDC) Deficiency” (University of Pittsburgh - Of the Commonwealth System of …, priority 2022, published 2026).

The conditions of series [1]: human, in vivo.
The conditions of series [2]: subjects with other mitochondrial disorders such as MELAS.
The next series deals with PDC (Homo sapiens, UniProt P10515). Conditions: read-out: Ki for end-product inhibition of PDC.
For series [3] the following is noted: subjects with FAO disorders.
Series [4] has as its system PDC and 2-oxoglutarate dehydrogenase activities. As to conditions: chronic epilepsy mouse model.
The conditions of series [5]: a case of pyruvate carboxylase deficiency.

The structures appear in SMILES notation.

For the molecule `Cc1ncc(C[n+]2csc(CCO)c2C)c(N)n1` [Thiamine, thiamine], in series [1], the adverse side-effects result is on record as “has not been reported to have adverse side-effects”.
`O=C(O)C(Cl)Cl` [DCA, dichloroacetate]: in series [2], the neuropathy entry is reported as “associated with toxic neuropathy”.
What is called Ki is the equilibrium dissociation constant of an inhibitor or competing ligand from its target. Take `CC(=O)SCCNC(=O)CCNC(=O)[C@H](O)C(C)(C)COP(=O)(O)OP(=O)(O)OC[C@H]1O[C@@H](n2cnc3c(N)ncnc32)[C@H](O)[C@@H]1OP(=O)(O)O` [acetyl-CoA]: the inhibitory constant (Ki) at PDC is 5 to 10 µM.
In the case of `CCCCCCC(=O)OCC(COC(=O)CCCCCC)OC(=O)CCCCCC` [triheptanoin], the “most commonly reported side effect: GI distress, share of cases” value was ≥ 10 % of cases. Moreover, the “biochemical and physical outcomes before and after treatment” value in series [3] was “significant improvement in cardiomyopathy and decreased frequency and severity of rhabdomyolysis”. In series [4], the “effect on PDC and 2-oxoglutarate dehydrogenase activities” value is “prevented reduction”; the “incorporation of 13C derived from 13C-glucose in TCA cycle intermediates” value was “partially corrected the reduced incorporation”. For the same molecule, in series [5], the biochemical outcomes is “rapid and significant improvement of biochemical outcomes”.
For `CCC(=O)SCCNC(=O)CCNC(=O)[C@H](O)C(C)(C)COP(=O)(O)OP(=O)(O)OC[C@H]1O[C@@H](n2cnc3c(N)ncnc32)[C@H](O)[C@@H]1OP(=O)(O)O` [propionyl-CoA], the Ki at PDC is 3000 to 4000 µM.
